These results are taken from paper PMC5484485, “In vitro and in vivo effects of kisspeptin antagonists p234, p271, p354, and p356 on GPR54 activation” (PLoS ONE, 2017).

Square brackets hold non-standard residues; d marks the D form. Ends that are not written are not given here.

The test system of assay [1] is plasma LH concentration. To be noted: bitches; anestrus, follicular phase, two stages of luteal phase; cited from earlier work. The text has this: Sensitivity to exogenous KP10 differs according to the stage of the reproductive cycle, as has been shown in rats, ewes, bitches, and women. In the bitch, the highest KP10-induced LH response was obtained during anestrus and the lowest was during the follicular phase. It is possible that the effects of a KP antagonist also differ among the cycle stages.

The test system of assay [2] is LH pulses. To be noted: intact and ovariectomized ewes; continuous intracerebroventricular; cited from earlier work.
Assay [3] has as its target human GPR54 (Homo sapiens, UniProt Q969F8). As to the kind of experiment: Flow cytometric calcium flux assay, KP10-induced response after 15 min pre-incubation with antagonist. Format: cell-based. Set-up: host or cells: rat hematopoietic CHEM1 cells expressing endogenous Galpha15. The settings on record: all concentrations 10^-13 to 10^-5 M; 10^-8 M KP10; 15 min pre-incubation; P = 1.00. The protocol:
In vitro analyses of the effects of kisspeptin and kisspeptin antagonists, were performed using HT[…] cells (rat hematopoietic CHEM1 cells expressing endogenous Gα15 and, stably expressing the human GPR54 receptor (Millipore BV, the Netherlands), CHEM1-GPR54. Cells were counted and suspended in HBSS+++ at a concentration of 5*10^6 cells/ml. To load the cells with the fluorescent dye ester they were incubated in HBSS+++ adjusted to a concentration of 2 μM Fluo-3 AM (Molecular Probes, Life Technologies, the Netherlands) for 1h at 37°C under agitation in the dark. After incubation, the cells were washed by adding HBSS+++ to a volume of 10 ml followed by centrifugation (5 min, 150 x g) to remove excess of Fluo-3AM. […] Thereafter the tube was removed briefly and 25 μl peptide (see below) was added, after which aspiration and analysis continued. For statistical analyses fluorescent data recorded during the time interval 30-60 seconds after initiation of measurement were used. […] We then assessed whether these antagonists could compete with KP10 for its receptor. […] For this purpose 25 μl quantities of the antagonists were added to 200 μl of Fluo-3 AM labelled cells (10^6 cells/ml) and incubated for 15 min. […] Peptides p354 and p356 were tested three times with both human and canine KP10; while peptides p234 and p271 were tested three times with human KP10 and once with canine KP10. To analyze the effects of different concentrations of the KP antagonists on the calcium response due to KP10 addition, the differences in fluorescence before and after KP10 were calculated (the calcium response). The calcium response ratios were calculated as the calcium response of the CHEM1-GPR54 cells pre-incubated with different concentrations of KP antagonist and the control (the calcium response of the cells without KP antagonist). These calcium response ratios were log transformed and used for further analysis by univariate analysis of variance, with the Dunnett's test as post hoc test. The calcium response ratios were set as dependent variables and the different concentrations of the antagonists and the two types of KP10 were used as fixed factors. The residuals were normally distributed.

human GPR54, sequence (Q969F8 whole entry): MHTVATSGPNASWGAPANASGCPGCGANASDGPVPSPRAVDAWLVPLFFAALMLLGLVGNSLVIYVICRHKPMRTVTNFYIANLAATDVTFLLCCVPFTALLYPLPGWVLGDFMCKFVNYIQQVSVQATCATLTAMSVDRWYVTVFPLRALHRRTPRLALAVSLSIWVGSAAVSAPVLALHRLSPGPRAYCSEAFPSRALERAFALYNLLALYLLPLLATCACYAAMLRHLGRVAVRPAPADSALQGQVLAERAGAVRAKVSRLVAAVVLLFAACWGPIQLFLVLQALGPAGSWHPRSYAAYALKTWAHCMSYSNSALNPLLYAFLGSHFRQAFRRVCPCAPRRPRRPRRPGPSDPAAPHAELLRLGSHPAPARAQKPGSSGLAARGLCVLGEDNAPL

With “RRMKWKKY[dA]NWNGFG[dW]RF-NH2 [p271, p234 with a penetratin tag]”, the “effect on basal plasma LH concentration, different stages of estrous cycle” value in assay [1] is reported as “did not result in a decrease”. Further, the “effect on LH pulses” value in assay [2] is given as “inhibited LH pulses”. Besides, the “difference in calcium response ratio between controls and antagonist” value in assay [3] was “not significant”.
